Laboratory results: US6051596A, “Immunosuppressive compositions” (AnorMED, Inc., priority 1997, dated 2000)

Tested on: Lewis-Brown Norway F1 hybrid cardiac allografts in Lewis rat recipients
Assay: Acute cardiac allograft rejection model in rats (procedure of Kupiec-Weglinski)
Type: in vivo
Settings: for GRAFT SURVIVAL (days) MEAN ± SD: N=7
Experimental: The therapeutic efficacy of a pharmaceutical composition of the invention was tested according to the procedure of Kupiec-Weglinski, J. W., et al., (1988) Transplant Proc. 2:207-216 (hereinafter "Kupiec-Weglinski") to determine its in vivo potency as an acute transplantation/graft rejection modulator.
Briefly, to preform these experiments, the following protocol was employed. Male inbred adult rats (Lewis-Brown Norway F1 Hybrid rats, obtained from Harlan sprague-Dawley Inc., Indianapolis, Ind.) were used. Lewis-Brown Norway F1 Hybrid cardiac allografts were transplanted to the abdominal great vessels of Lewis recipients. The animals were administered compounds according to the following five distinct regimens.
Protocol I. Pretreatment Protocol--20 mg/kg/day of Compound A was administered orally for 7 consecutive days prior to transplantation (days -7 to -1).
Protocol II Treatment Protocol--20 mg/kg/day of Compound A was administered orally for 7 consecutive post-transplant days (days 0-6) followed by intermittent 5 day courses (days 9-13 and 16-20).
Protocol III Pretreatment and Treatment Protocol--20 mg/kg/day of Compound A was administered orally for 7 consecutive days prior to transplantation (days -7 to -1) followed by intermittent 5 day courses (days 9-13 and 16-20).
Ventricular contractions were assessed daily by palpation through the recipient flank. Rejection was defined as the day of cessation of myocardial contractions and confirmed histologically.

CCCC1(CCC)CCC2(CCN(CCCN(C)C)C2)CC1 [Compound A, N,N-dimethyl-8,8-dipropyl-2-azaspiro[4,5]-decane-2-propanamine]
GRAFT SURVIVAL (days) MEAN ± SD (Protocol I pretreatment: 20 mg/kg/day orally, days -7 to -1): 14.7 ± 5.8 days
GRAFT SURVIVAL (days) MEAN ± SD (Protocol II treatment: 20 mg/kg/day orally, days 0-6, then days 9-13 and 16-20): 16.7 ± 2.0 days
GRAFT SURVIVAL (days) MEAN ± SD (Protocol III pretreatment and treatment: 20 mg/kg/day orally, days -7 to -1, then days 9-13 and 16-20): 16.0 ± 4.3 days
average graft survival time (single compound protocols (pretreatment, treatment or both), 20 mg/kg/day orally, untreated average 7 days): 16 days
